In test [1] the test system is KB. In words: In vitro cytotoxicity against oral epidermoid carcinoma cell line. The format is functional, cell-based. As to conditions: Homo sapiens.
Another test concerns U373 MG. In words: In vitro cytotoxicity against glioblastoma cell line. As to conditions: Homo sapiens. The format is functional, cell-based, U-373MG ATCC.
The test system of test [2] is KB. In words: In vitro cytotoxicity against vinblastine resistant KB cell line. The format is functional, cell-based. As to conditions: Homo sapiens.
The next test has as its system A-431. In words: In vitro cytotoxicity against epidermoid carcinoma cell line. The format is functional, cell-based. The settings on record: Homo sapiens.
A further test has as its system BC1 cell line. Kind of test: In vitro cytotoxicity against breast cancer cell line. The format is functional, cell-based. The settings on record: Homo sapiens.
A further test concerns P388. Kind of test: In vitro cytotoxicity against murine lymphoid neoplasm cell line. As to conditions: Mus musculus. The format is functional, cell-based.
A further test relates to Colon carcinoma cell. Kind of test: In vitro cytotoxicity against colon cancer cell line. The format is functional, cell-based. The settings on record: Homo sapiens.
For a further test, the system named is Lung cancer cell line. Kind of test: In vitro cytotoxicity against lung cancer cell line. The settings on record: Homo sapiens. The format is functional, cell-based.
The test system of the next test is Fibrosarcoma cell line. Kind of test: In vitro cytotoxicity against fibrosarcoma cell line. The format is functional, cell-based. As to conditions: Homo sapiens.
For the next test, the system named is HT-29. Kind of test: Compound was tested for cytotoxicity against colon adenocarcinoma. The format is functional, cell-based, Homo sapiens.
Test [3] relates to SK-OV-3. Kind of test: Compound was tested for cytotoxicity against ovarian adenocarcinoma. As to conditions: Homo sapiens.
Test [4] concerns SK-VLB. Kind of test: Compound was tested for cytotoxicity against ovarian adenocarcinoma, multidrug resistant. As to conditions: Homo sapiens.
Test [5] deals with SK-VLB. In words: Compound was tested for cytotoxicity against ovarian adenocarcinoma, multidrug resistant. The format is functional, cell-based. The settings on record: Homo sapiens.
The subject of test [6] is SK-OV-3. Kind of test: Comparison of cytotoxicity of calycopterone and flavone with doxorubicin against ovarian adenocarcinoma. The format is functional, cell-based, Homo sapiens.

In brackets after ≈: the same amount, converted by molar mass. Several values for one entry are separate records, joined by “and”; a condition that tells them apart may be missing. Equal values may be shown once.

With `COC1=C(OC)[C@@]2(OC)c3c(O)c(OC)c4c(c3O[C@@]23O[C@@H](c2ccccc2)CC=C3C1=O)[C@@H](O)C[C@H](c1ccccc1)O4`, the EC50 (commonly the concentration at which the effect is half-maximal) in the test with KB [1] was found to be 1.2 mg/L (≈ 2 µM); in the test with U373 MG it was 0.3 mg/L (≈ 0.499 µM); in the test on KB [2], 8.6 mg/L (≈ 14.3 µM); with A-431, 0.2 mg/L (≈ 0.333 µM); in the test on BC1 cell line, 1.4 mg/L (≈ 2.33 µM); in the test with P388 it was 0.42 mg/L (≈ 0.699 µM). Also, the values for the EC50 in the test on Colon carcinoma cell, in the test with Lung cancer cell line and in the test with Fibrosarcoma cell line were 0.3 mg/L (≈ 0.499 µM), 1.6 mg/L (≈ 2.66 µM) and 0.8 mg/L (≈ 1.33 µM), respectively.
For `COc1cc(-c2oc3cc(OC)c(OC)c(O)c3c(=O)c2OC)ccc1O` [CHRYSOSPLENOL B], the EC50 is > 20 mg/L with KB [1]; > 20 mg/L in the test with U373 MG; 0.8 mg/L (≈ 2.14 µM) in the test on KB [2]; > 20 mg/L in the test on A-431; > 20 mg/L with BC1 cell line; > 20 mg/L in the test on P388. Besides, the figures for the EC50 in the test on Colon carcinoma cell, in the test on Lung cancer cell line and with Fibrosarcoma cell line were > 20 mg/L, > 20 mg/L and 4.2 mg/L (≈ 11.2 µM), respectively. Further, the IC50 – broadly, the concentration that inhibits the measured activity by half – was 14.2 µM with HT-29 (Homo sapiens, HT-29); 79 µM in the test with SK-OV-3 [3]; > 133 µM with SK-VLB [4].
`COC1=C(OC)[C@@]2(OC)c3c(O)c(OC)c4c(c3O[C@@]23O[C@@H](c2ccccc2)CC=C3C1=O)[C@@H](OC)C[C@H](c1ccccc1)O4` [CALYCOPTERONE]: the EC50 with KB [1] worked out at 0.8 mg/L (≈ 1.3 µM); in the test with U373 MG, 0.1 mg/L (≈ 0.163 µM); in the test with KB [2] it was 9.6 mg/L (≈ 15.6 µM); with A-431 it was 1 mg/L (≈ 1.63 µM); with BC1 cell line, 5.4 mg/L (≈ 8.79 µM); in the test with P388, 0.78 mg/L (≈ 1.27 µM). Moreover, the EC50 was found to be 0.4 mg/L (≈ 0.651 µM) in the test with Colon carcinoma cell, 1.2 mg/L (≈ 1.95 µM) with Lung cancer cell line and 1.8 mg/L (≈ 2.93 µM) in the test on Fibrosarcoma cell line. Besides, the 50% inhibitory concentration (IC50) in the test with HT-29 (ht-29) was 0.24 µM and 0.93 µM; in the test with SK-VLB [5] it was 1.9 µM; in the test with SK-OV-3 [6] it was 0.125 µM and 1 µM.
Take `COc1cccc2c1C(=O)c1c(O)c3c(c(O)c1C2=O)C[C@@](O)(C(=O)CO)C[C@@H]3O[C@H]1C[C@H](N)[C@H](O)[C@H](C)O1` [DOXORUBICIN]: the IC50 in the test on HT-29 (Homo sapiens, HT-29) is 0.18 µM; in the test on SK-OV-3 [3] it was 0.043 µM; in the test on SK-VLB [4] it was > 10 µM.
On to `COC1=C(OC)[C@@]2(OC)c3c(OC)c(O)c4c(c3O[C@@]23O[C@@H](c2ccccc2)CC=C3C1=O)[C@@H](OC)C[C@H](c1ccccc1)O4`, for which the 50% effective concentration (EC50) with KB [1] was 0.4 mg/L (≈ 0.651 µM); with U373 MG it was 0.8 mg/L (≈ 1.3 µM); in the test on A-431, 0.4 mg/L (≈ 0.651 µM); in the test on BC1 cell line, 0.4 mg/L (≈ 0.651 µM); in the test on P388 it was 0.2 mg/L (≈ 0.325 µM); with Colon carcinoma cell, 0.3 mg/L (≈ 0.488 µM). The EC50 in the test on Lung cancer cell line came to 0.7 mg/L (≈ 1.14 µM); with Fibrosarcoma cell line, 0.4 mg/L (≈ 0.651 µM).

(Values after ChEMBL document CHEMBL1127510, “Plant antitumor agents. 31. The calycopterones, a new class of biflavonoids with novel cytotoxicity in a diverse panel of human tumor cell lines” (J Med Chem, 1994).)
